Read-outs that look alike come from different tables or passages of the source.
Columns and labels:
E. coli CsgA = biological target: T1, E. coli CsgA (Escherichia coli, UniProt P28307); test: In vitro ThioflavinT assay of CsgA aggregation (CsgA ThT Assay); assay type: biochemical; conditions: for remaining activity at 25 µM: compound 25 μM; for remaining activity at 100 µM: compound 100 μM
T1 construct: made in house; host or cells: E. coli NEB 3016 slyD::kan, pET11d
How it was run: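 Purified C-terminal His-tagged CsgA, monomerised by desalting and 30-kDa filtration, at 2-20 μM with 20-40 μM ThT in 50 mM potassium phosphate pH 7.3, 1% DMSO, compounds 3.125-200 uM; room temperature, fluorescence (ex 438/em 495 nm) read every 15 min. Background-subtracted signal expressed as percent inhibition versus vehicle at 6-6.5 or 8-9 h, or as percent control AUC.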

number of fecal pellets = test: Fecal pellet output in MC4100 mice treated with compound vs control chow (FIG. 5); assay type: in vivo, mouse; conditions: 12-14 weeks of age; compared to MC4100-control chow group; statistical difference was not reached
fecal water content = test: Fecal water content in MC4100 mice treated with compound vs control chow (FIG. 6); assay type: in vivo, mouse; conditions: 12-14 weeks of age; vs MC4100-control chow group
[1] = tested on: time to descend from a pole; test: Pole descent test in MC4100 mice treated with compound vs control chow (FIG. 7); assay type: in vivo, mouse; conditions: 18-20 weeks of age; vs MC-4100 control chow group
[2] = tested on: csgA expression in E. coli MC4100; test: csgA expression relative to housekeeping genes recA and cysG in E. coli MC4100 monocolonized mice (FIGS. 8A-D); assay type: in vivo
[3] = tested on: CsgA expression in E. coli MC4100; test: Monocolonized Mouse Model: csgA expression in fecal pellets by qRT-PCR; conditions: 30 mg/kg, day five of treatment, relative to mice treated with vehicle alone (FIGS. 4A-B)
[4] = read-out: CsgA ThT Assay (2 μM CsgA) % Control Bmax 25 μM, activity range, class symbol, CsgA 2 μM, white plates
[5] = read-out: CsgA ThT Assay (2 μM CsgA) % Control Bmax 25 μM, mean Bmax as percentage of DMSO control, CsgA 2 μM, white plates
[6] = read-out: CsgA ThT Assay (2 μM CsgA) % Control Bmax 100 μM, activity range, class symbol, CsgA 2 μM, white plates
[7] = read-out: CsgA ThT Assay (2 μM CsgA) % Control Bmax 100 μM, mean Bmax as percentage of DMSO control, CsgA 2 μM, white plates
[8] = read-out: CsgA ThT Assay (10 μM CsgA) % Control AUC at 1005 minutes, 25 μM (activity range), CsgA 10 μM, black plates, 1005 minutes, class symbol
[9] = read-out: CsgA ThT Assay (10 μM CsgA) % Control AUC at 1005 minutes, 25 μM, mean AUC as % of DMSO control, CsgA 10 μM, black plates, 1005 minutes
[10] = read-out: CsgA ThT Assay (10 μM CsgA) % Control AUC at 1005 minutes, 100 μM (activity range), CsgA 10 μM, black plates, 1005 minutes, class symbol
[11] = read-out: CsgA ThT Assay (10 μM CsgA) % Control AUC at 1005 minutes, 100 μM, mean AUC as % of DMSO control, CsgA 10 μM, black plates, 1005 minutes

T1 sequence (P28307 23-151): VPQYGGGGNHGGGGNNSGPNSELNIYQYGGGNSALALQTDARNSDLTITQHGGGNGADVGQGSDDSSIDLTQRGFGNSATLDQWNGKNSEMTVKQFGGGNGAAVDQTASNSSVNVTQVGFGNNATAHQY

SMILES	remaining activity at 25 µM (E. coli CsgA; [4])	remaining activity at 25 µM (E. coli CsgA; [5])	remaining activity at 100 µM (E. coli CsgA; [6])	remaining activity at 100 µM (E. coli CsgA; [7])	remaining activity at 25 µM (E. coli CsgA; [8])	remaining activity at 25 µM (E. coli CsgA; [9])	remaining activity at 100 µM (E. coli CsgA; [10])	remaining activity at 100 µM (E. coli CsgA; [11])	also measured
O=C(O)[C@@H]1CN(Cc2ccccc2)c2c(-c3cccc(C(F)(F)F)c3)c(Cc3cccc4ccccc34)c(Cl)c(=O)n21 (single isomer, unassigned) [Compound 004a]	> 60%	64%	11 to 31%	24%					number of fecal pellets a mouse produced at 15 min interval (number of fecal pellets): overall increase in number of fecal pellets; fecal water content (fecal water content): restored a constipation phenotype; time to descend from a pole into a home cage [1]: trend towards improvement of the phenotype; csgA expression relative to housekeeping genes recA and cysG ([2]; 12-14 weeks of age): reduction of csgA expression; csgA expression relative to housekeeping genes recA and cysG ([2]; 14-16 weeks of age): repeated and observed again
CN1CC(C(=O)O)n2c(c(-c3cccc(C(F)(F)F)c3)c(Cc3cccc4ccccc34)c(NC3CCCC3)c2=O)S1(=O)=O (stereo not shown) [Compound 070, 7-(cyclopentylamino)-2-methyl-8-(naphthalen-1-ylmethyl)-6-oxo-9-(3-(trifluoromethyl)phenyl)-3,4-dihydro-2H,6H-pyrido[1,2-e][1,2,5]thiadiazine-4-carboxylic acid 1,1-dioxide]					11 to 31%	17%	11 to 31%	29%	csgA expression in E. coli MC4100 monocolonized mice [3]: reduction of csgA expression
CCCN1CC(C(=O)O)n2c(c(-c3cccc(C(F)(F)F)c3)c(C(F)(F)c3cccc4ccccc34)cc2=O)S1(=O)=O (stereo not shown) [Compound 138, 8-(difluoro(naphthalen-1-yl)methyl)-6-oxo-2-propyl-9-(3-(trifluoromethyl)phenyl)-3,4-dihydro-2H,6H-pyrido[1,2-e][1,2,5]thiadiazine-4-carboxylic acid 1,1-dioxide]	> 60%	73%	31 to 60%	43%					
CCCN1CC(C(=O)O)n2c(c(-c3cccc(C(F)(F)F)c3)c(Cc3cccc4ccccc34)c(C(N)=O)c2=O)S1(=O)=O (stereo not shown) [Compound 172, 7-carbamoyl-8-(naphthalen-1-ylmethyl)-6-oxo-2-propyl-9-(3-(trifluoromethyl)phenyl)-3,4-dihydro-2H,6H-pyrido[1,2-e][1,2,5]thiadiazine-4-carboxylic acid 1,1-dioxide]	11 to 31%	26%	11 to 31%	17%					
O=C(O)C1CN(CCCCCO)c2c(-c3cccc(C(F)(F)F)c3)c(Cc3cccc4ccccc34)c(Cl)c(=O)n21 (stereo not shown) [Compound 199, 6-chloro-1-(5-hydroxypentyl)-7-(naphthalen-1-ylmethyl)-5-oxo-8-(3-(trifluoromethyl)phenyl)-1,2,3,5-tetrahydroimidazo[1,2-a]pyridine-3-carboxylic acid]	> 60%	83%	> 60%	99%					
CNC(=O)C1CN(C)S(=O)(=O)c2c(-c3cccc(C(F)(F)F)c3)c(Cc3cccc4ccccc34)cc(=O)n21 (stereo not shown) [Compound 031, N,2-dimethyl-8-(naphthalen-1-ylmethyl)-6-oxo-9-(3-(trifluoromethyl)phenyl)-3,4-dihydro-2H,6H-pyrido[1,2-e][1,2,5]thiadiazine-4-carboxamide 1,1-dioxide]					> 60%	100%	> 60%	99%	
Cn1c(=O)c2c(ncn2CCCCCN2CC(C(=O)O)n3c(c(-c4cccc(C(F)(F)F)c4)c(Cc4cccc5ccccc45)cc3=O)S2(=O)=O)n(C)c1=O (stereo not shown) [Compound 034, 2-(5-(1,3-dimethyl-2,6-dioxo-1,2,3,6-tetrahydro-7H-purin-7-yl)pentyl)-8-(naphthalen-1-ylmethyl)-6-oxo-9-(3-(trifluoromethyl)phenyl)-3,4-dihydro-2H,6H-pyrido[1,2-e][1,2,5]thiadiazine-4-carboxylic acid 1,1-dioxide]					> 60%	62%	> 60%	95%	
O=C(O)C1CN(Cc2cccnc2)c2c(-c3cccc(C(F)(F)F)c3)c(Cc3cccc4ccccc34)c(Cl)c(=O)n21 (stereo not shown) [Compound 169, 6-chloro-7-(naphthalen-1-ylmethyl)-5-oxo-1-(pyridin-3-ylmethyl)-8-(3-(trifluoromethyl)phenyl)-1,2,3,5-tetrahydroimidazo[1,2-a]pyridine-3-carboxylic acid]	> 60%	77%	> 60%	64%					
O=C(O)c1c(-c2ccccc2)sc2c(-c3cccc(C(F)(F)F)c3)c(Cc3cccc4ccccc34)cc(=O)n12 [Compound 051, 7-(naphthalen-1-ylmethyl)-5-oxo-2-phenyl-8-(3-(trifluoromethyl)phenyl)-5H-thiazolo[3,2-a]pyridine-3-carboxylic acid]					> 60%	81%	31 to 60%	54%	
CCCCN1CC(C(=O)O)n2c1c(-c1cccc(C(F)(F)F)c1)c(Cc1cccc3ccccc13)c(Cl)c2=O (stereo not shown) [Compound 163, 1-butyl-6-chloro-7-(naphthalen-1-ylmethyl)-5-oxo-8-(3-(trifluoromethyl)phenyl)-1,2,3,5-tetrahydroimidazo[1,2-a]pyridine-3-carboxylic acid]	31 to 60%	33%	31 to 60%	42%					
